Measurements: patent US20240083839A1, “COMPOSITIONS AND METHODS FOR TREATING NEURODEGENERATIVE DISEASES AND DISORDERS” (The Regents of the University of California, priority 2020, published 2024)
Structures can show the parent of a compound that is named as a salt.

Each compound was assayed on SirT1 levels in N2a-E4 cells (assay: SirT1 levels by AlphaLISA in ApoE4-transfected N2a cells).
Type: cell-based, murine
Experimental: Prompted by the emerging importance of the associations between ApoE4 and the expression/protein levels of SirT1, high-throughput screening (HTS) of the UCLA compound library was performed using AlphaLISA to detect SirT1 levels in murine neuroblastoma cells stably transfected with ApoE4 (E4-N2a) to identify SirT1 enhancers. […] In the in vivo study, mice were treated orally at 40 mkd (20 mg/kg BID) for 56 days and underwent assessment of cognition in the Novel Object Recognition (NOR) testing paradigm. […] The performance of A03-treated E4-AD mice (FIG. 5A) improved to level of non-transgenic vehicle-treated mice.
For `C[C@H](NC(=O)OC(C)(C)C)C(=O)N[C@H]1CCC[C@H]1c1ccc(Cl)cc1` (mixture of isomers) [MP-95, tert-butyl-((S)-1-(((±)-cis-2-(4-chlorophenyl)cyclopentyl)amino)-1-oxopropan-2-yl)carbamate], the “SirT1 SOμM” value was “a, a (a <250%)” and the “SirT1 SμM” value was “a, a (a <250%)”. In the case of `C[C@H](N)C(=O)N[C@H]1CCCCNC1=O.Cl` (racemic) [MP-103, (S)-2-amino-N—((S)-2-oxoazepan-3-yl)propanamide hydrochloride], the “SirT1 SOμM” value is reported as “a, a (a <250%)” and the “SirT1 SμM” value is reported as “a, a (a <250%)”. `C[C@H](NC(=O)OC(C)(C)C)C(=O)O[C@H]1CCC[C@@H]1c1ccc(Cl)cc1` (single isomer, unassigned) [MP-87] was tested, and the “SirT1 SOμM” value was “a, a (a <250%)” and the “SirT1 SμM” value was “a, a (a <250%)”. For `C[C@H](NC(=O)OC(C)(C)C)C(=O)O[C@H]1CCC[C@@H]1c1ccc(Cl)cc1` (single isomer, unassigned) [MP-88], the “SirT1 SOμM” value was “a, a (a <250%)” and the “SirT1 SμM” value was “a, a (a <250%)”. In the case of `C[C@H](N)C(=O)O[C@@H]1CCC[C@H]1c1ccc(Cl)cc1.Cl` (single isomer, unassigned) [MP-90], the “SirT1 SOμM” value is reported as “a, a (a <250%)” and the “SirT1 SμM” value is reported as “a, a (a <250%)”. `C[C@H](NC(=O)OC(C)(C)C)C(=O)O[C@H]1CCC[C@H]1c1ccc(Cl)cc1` (single isomer, unassigned) [MP-91] was tested, and the “SirT1 SOμM” value was “a, a (a <250%)” and the “SirT1 SμM” value was “a, a (a <250%)”. With `C[C@H](NC(=O)OC(C)(C)C)C(=O)O[C@H]1CCC[C@H]1c1ccc(Cl)cc1` (single isomer, unassigned) [MP-92] the “SirT1 SOμM” value was “a, a (a <250%)” and the “SirT1 SμM” value was “a, a (a <250%)”. In the case of `C[C@H](N)C(=O)O[C@@H]1CCC[C@@H]1c1ccc(Cl)cc1.Cl` (single isomer, unassigned) [MP-93], the “SirT1 SOμM” value is reported as “C (C = 100% increase versus control)” and the “SirT1 SμM” value is reported as “A (A >20%)”. With `C[C@H](N)C(=O)O[C@H]1CCC[C@H]1c1ccc(Cl)cc1.Cl` (single isomer, unassigned) [MP-94] the “SirT1 SOμM” value was “A (A >20%)” and the “SirT1 SμM” value was “a (a <250%)”. For `C[C@H](NC(=O)OC(C)(C)C)C(=O)N[C@@H]1CCC[C@@H]1c1ccc(Cl)cc1` (single isomer, unassigned) [MP-96], the “SirT1 SOμM” value was “a, a (a <250%)” and the “SirT1 SμM” value was “a, a (a <250%)”. In the case of `C[C@H](NC(=O)OC(C)(C)C)C(=O)N(C)[C@H]1CCC(c2ccc(Cl)c(Cl)c2)c2ccccc21` (stereo in doubt) [MP-80, tert-butyl ((S)-1-(((1S,4R)-4-(3,4-dichlorophenyl)-1,2,3,4-tetrahydronaphthalen-1-yl)(methyl)amino)-1-oxopropan-2-yl)carbamate], the “SirT1 SOμM” value is reported as “a, a (a <250%)” and the “SirT1 SμM” value is reported as “a, a (a <250%)”. `C[C@H](N)C(=O)N(C)[C@H]1CCC(c2ccc(Cl)c(Cl)c2)c2ccccc21.Cl` (stereo in doubt) [MP-81, (S)-2-amino-N-((1S,4R)-4-(3,4-dichlorophenyl)-1,2,3,4-tetrahydronaphthalen-1-yl)-N-methylpropanamide hydrochloride] was tested, and the “SirT1 SOμM” value was “B, B (B >50%)” and the “SirT1 SμM” value was “B, B (B >50%)”. With `O=C1NCc2ccccc2C[C@@H]1N[C@@H](c1ccccc1)[C@H](O)c1ccccc1` (stereo in doubt) [MP-102, 4(R)-(1R,2S)-1,2-diphenyl-2-hydroxyethylamino-2,3,4,5-tetrahydro-1H-2-benzazepin-3-one] the “SirT1 SOμM” value was “a, a (a <250%)” and the “SirT1 SμM” value was “a, a (a <250%)”. In the case of `C[C@H](N)C(=O)Nc1cccc2ccccc12` [MP-54, (S)-2-amino-N-(naphthalen-1-yl)propanamide], the “SirT1 SOμM” value is reported as “C (C = 100% increase versus control)” and the “SirT1 SμM” value is reported as “A (A >20%)”. `C[C@H](Nc1ccccc1-c1ccccc1)C(N)=O` [MP-60] was tested, and the “SirT1 SOμM” value was “B (B >50%)” and the “SirT1 SμM” value was “A (A >20%)”. With `N[C@H]1Cc2ccccc2CNC1=O` [MP-71, (S)-4-amino-4,5-dihydro-1H-benzo[c]azepin-3(2H)-one hydrochloride] the “SirT1 SOμM” value was “C (C = 100% increase versus control)” and the “SirT1 SμM” value was “B (B >50%)”. In the case of `C[C@H](NC(=O)OC(C)(C)C)C(=O)OC(C)(C)Cc1ccc(C(F)(F)F)cc1` [MP-75, 2-methyl-1-(4-(trifluoromethyl)phenyl)propan-2-yl 2-((tert-butoxycarbonyl)amino)propanoate], the “SirT1 SOμM” value is reported as “a, a (a <250%)” and the “SirT1 SμM” value is reported as “a, a (a <250%)”. With `C[C@H](N)C(=O)NC(C)(C)Cc1ccc(F)cc1.Cl` [MP-83, (S)-2-amino-N-(1-(4-fluorophenyl)-2-methylpropan-2-yl)propanamide hydrochloride] the “SirT1 SOμM” value was “A (A >20%)” and the “SirT1 SμM” value was “a (a <250%)”. For `C[C@H](N)C(=O)NC1CCc2ccccc2NC1=O` (stereo partly drawn) [MP-84, (2S)-2-amino-N-(2-oxo-2,3,4,5-tetrahydro-1H-benzo[b]azepin-3-yl)propanamide hydrochloride], the “SirT1 SOμM” value was “A (A >20%)” and the “SirT1 SμM” value was “a (a <250%)”. In the case of `C[C@H](NC(=O)OC(C)(C)C)C(=O)N[C@H]1CCC[C@@H]1c1ccc(Cl)cc1` [MP-85, tert-butyl ((S)-1-(((1S,2R)-2-(4-chlorophenyl)cyclopentyl)amino)-1-oxopropan-2-yl)carbamate], the “SirT1 SOμM” value is reported as “a, a (a <250%)” and the “SirT1 SμM” value is reported as “a, a (a <250%)”. For `C[C@H](N)C(=O)N[C@H]1CCC[C@@H]1c1ccc(Cl)cc1.Cl` [MP-86, (S)-2-amino-N-((1S,2R)-2-(4-chlorophenyl)cyclopentyl)propanamide], the “SirT1 SOμM” value was “B (B >50%)” and the “SirT1 SμM” value was “A (A >20%)”. With `C[C@H](N)C(=O)O[C@@H]1CCC[C@H]1c1ccc(Cl)cc1.Cl` [MP-89, (S)-(1R,2S)-2-(4-chlorophenyl)cyclopentyl 2-aminopropanoate hydrochloride] the “SirT1 SOμM” value was “A (A >20%)” and the “SirT1 SμM” value was “a (a <250%)”. In the case of `C[C@H](N)C(=O)NC(C)(C)Cc1ccncc1.Cl` [MP-100, (S)-2-amino-N-(2-methyl-1-(pyridin-4-yl)propan-2-yl)propanamide hydrochloride], the “SirT1 SOμM” value is reported as “A, A (A >20%)” and the “SirT1 SμM” value is reported as “A, A (A >20%)”. With `C[C@H](N)C(=O)NC(C)(C)c1ccc(Cl)cc1.Cl` [MP-101, (S)-2-amino-N-(2-(4-chlorophenyl)propan-2-yl)propanamide hydrochloride] the “SirT1 SOμM” value was “B (B >50%)” and the “SirT1 SμM” value was “a (a <250%)”. With `C[C@H](N)C(=O)N[C@H]1Cc2ccccc2CN(C)C1=O.Cl` [MP-104, (S)-2-amino-N—((S)-2-methyl-3-oxo-2,3,4,5-tetrahydro-1H-benzo[c]azepin-4-yl)propanamide hydrochloride] the “SirT1 SOμM” value was “A (A >20%)” and the “SirT1 SμM” value was “a (a <250%)”. In the case of `C[C@H](N)C(=O)N[C@H]1Cc2ccccc2CNC1=O.Cl` [MP-105, (S)-2-amino-N—((S)-3-oxo-2,3,4,5-tetrahydro-1H-benzo[c]azepin-4-yl)propanamide hydrochloride], the “SirT1 SOμM” value is reported as “a, a (a <250%)” and the “SirT1 SμM” value is reported as “a, a (a <250%)”. With `C[C@H](N)C(=O)NC(C)(Cc1cc(F)cc(F)c1)Cc1cc(F)cc(F)c1` [MP-106, (S)-2-amino-N-(1,3-bis(3,5-difluorophenyl)-2-methylpropan-2-yl)propanamide hydrochloride] the “SirT1 SOμM” value was “a, a (a <250%)” and the “SirT1 SμM” value was “a, a (a <250%)”. `N[C@@H](CO)C(=O)NCCc1ccc(Cl)cc1` [MP-107] was tested, and the “SirT1 SOμM” value was “A, A (A >20%)” and the “SirT1 SμM” value was “A, A (A >20%)”. For `CN1Cc2ccccc2C[C@H](N)C1=O` [MP-108], the “SirT1 SOμM” value was “A, A (A >20%)” and the “SirT1 SμM” value was “A, A (A >20%)”.
